IC50 and viability, T/C data for three molecules are collected here from PubChem BioAssay AID2060356 (Molecular Pharmacology Branch, DTP, NCI, 2025).

pIC50: −log10 of the molar value. Where “and” joins values, the source holds several entries; their conditions need not be identical. Equal values may be shown once. Where only a bound is given, the exact number is not on record here.

The experiment has as its system PDC tumor spheroids with HUVEC/MSC, viability. The experiment can be described thus: Anticancer human tumor 439559-082-T-J2-PDC patient-derived colon adenocarcinoma cell line growth inhibition [TAK]. The settings on record: for viability, T/C: stronger effect = lower value. The source says:
Combinatorial screen of targeted agents with TAK-243 and ipatasertib in multi-cell type tumor spheroids
A high-throughput screen of multi-cell type tumor spheroids was designed to identify active combinations of targeted small molecules and TAK-243 or ipatasertib. Complex spheroids include a stromal component modeled by human endothelial cells (HUVEC) and fibroblasts modeled by human mesenchymal stem cells (MSCs). The concentration ranges selected for each drug and investigational agent were based upon clinically achievable concentrations if the clinical Cmax of the agent was known.
Compounds. The drugs and investigational agents: TAK-243 (785004), ipatasertib (767898), everolimus (733504), selumetinib (741078), bortezomib (756655), trametinib (758246), ixazomib (758254), vemurafenib (761431), dabrafenib (764134), sapanisertib (764658), alpelisib (765974), and copanlisib (816437), were obtained from the National Cancer Institute (NCI) Developmental Therapeutics Program Chemical Repository. The FDA-approved anticancer drug set is available from the NCI Developmental Therapeutics Program. […] The stock solutions were prepared in dimethyl sulfoxide (DMSO, Sigma-Aldrich, St. Louis, MO, cat. D2650) at 800-fold the tested concentration and stored at -70 degrees C prior to their use. All drugs and investigational agents were tested over a range starting from a high concentration at or near the clinical Cmax and decreasing in half-log increments. If the clinical Cmax for an agent had not been determined, the highest concentration tested was 10 microM.
NCI60 Cell Culture. NCI60 cell lines were obtained from the NCI Developmental Therapeutics Program Tumor Repository. For each lot of cells, the Repository performed Applied Biosystems AmpFLSTR Identifiler testing with PCR amplification to confirm consistency with the published Identifier STR profile for each cell line. Cells were kept in continuous culture for no more than 20 passages. The optimal seeding densities for each of the cell lines at each time point assessed were determined prior to performing the concentration response studies. Briefly, the NCI60 human tumor lines were grown as monolayers in RPMI 1640 medium supplemented with 10% FBS and 2 mmol/L L-glutamine.
An additional 2 lines were from the NCI60 cell line panel including melanomas, MALME-3M and SK-MEL-2. Pooled donor human umbilical vein endothelial cells (HUVEC, Lonza, cat. CC-2519) and human mesenchymal stem cells (hMSC, Lonza, cat. PT-2501) were purchased from Lonza (Walkersville, MD).
PDMR cell lines were grown in complete medium (DC medium): Dulbecco's modified Eagle's medium (DMEM)/F12 supplemented with 5% fetal bovine serum (FBS), 2 mM L-glutamine, 100 U/mL penicillin and 100 µg/ml streptomycin, 0.4 µg/ml hydrocortisone, 10 ng/ml epidermal growth factor (EGF) recombinant human protein, 24 µg/mL adenine, and 0.1 mg/mL primocin. During culture from frozen stock vials, PDMR cells were cultured in the same medium containing 10 µM Y-27632 (see Table 3). The PDCs were cultured in complete DMEM/F12 media without 10 microM Y-27632 dihydrochloride for at least two passages prior to the screen. The pooled donor HUVEC and hMSC were cultured in endothelial cell growth medium 2 (PromoCell, Heidelberg, Germany, cat. C-22011) and mesenchymal stem cell growth medium 2 (PromoCell, cat. C-28009), respectively. For all experiments, HUVEC and hMSC were used at passages </=5.
For the pre-screen, cell seeding densities were determined from a titration spanning the range from 5,000 to 313 cells per well. The mct-spheroids including 60% malignant cells, 25% HUVEC and 15% MSC dispensed as a mixture into U-bottom Ultra-Low Attachment 384-well plates (Corning, NY)
High-throughput Drug Combination Screening.
Prior to their inoculation into 384-well plates, malignant cells, HUVEC, and hMSC were removed from T flasks using TrypLE express (Thermo Fisher Scientific, cat. 12605036) and harvested by centrifugation for 5 min at 233 x g. […]
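Note: spheroids exposed to drugs for seven days before readout.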

As for `COc1c(OCCCN2CCOCC2)ccc2c3n(c(=NC(=O)c4cnc(N)nc4)nc12)CCN3` + CC(C)NCC(C(=O)N1CCN(c2ncnc3c2C(C)CC3O)CC1)c1ccc(Cl)cc1, the negative logarithm of the IC50 (pIC50) is, setting by setting: (curve of first compound, second compound 0.3 µM) below 6.00; (curve of first compound, second compound 0.949 µM) below 6.00; (curve of first compound, second compound 3 µM) below 6.00; (curve of first compound, second compound 9.49 µM) below 6.00; (curve of first compound, second compound 30 µM) below 6.00. The viability, T/C by setting is: (second compound 0.3 µM, first compound 0.00316 µM) 98.6%; (second compound 0.3 µM, first compound 0.01 µM) 89.5%; (second compound 0.3 µM, first compound 0.0316 µM) 71.3%; (second compound 0.3 µM, first compound 0.1 µM) 73.3%; (second compound 0.3 µM, first compound 0.316 µM) 61.8%; (second compound 0.3 µM, first compound 1 µM) 66.9%. Further, the viability, T/C by setting is: (second compound 0.949 µM, first compound 0.00316 µM) 98.5%; (second compound 0.949 µM, first compound 0.01 µM) 91.5%; (second compound 0.949 µM, first compound 0.0316 µM) 76.2%; (second compound 0.949 µM, first compound 0.1 µM) 72.4%; (second compound 0.949 µM, first compound 0.316 µM) 66.8%; (second compound 0.949 µM, first compound 1 µM) 65.8%. In addition, the viability, T/C is, setting by setting: (second compound 3 µM, first compound 0.00316 µM) 85.1%; (second compound 3 µM, first compound 0.01 µM) 88.4%; (second compound 3 µM, first compound 0.0316 µM) 75.5%; (second compound 3 µM, first compound 0.1 µM) 71.3%; (second compound 3 µM, first compound 0.316 µM) 66.8%; (second compound 3 µM, first compound 1 µM) 69.7%. For the same molecule, the viability, T/C (second compound 9.49 µM, first compound 0.00316 µM) was 90.6%; the viability, T/C (second compound 9.49 µM, first compound 0.01 µM) was 80.8%; the viability, T/C (second compound 9.49 µM, first compound 0.0316 µM) is 80.9%; the viability, T/C (second compound 9.49 µM, first compound 0.1 µM) was 73.7%; the viability, T/C (second compound 9.49 µM, first compound 0.316 µM) is 67.8%; the viability, T/C (second compound 9.49 µM, first compound 1 µM) is 70.9%. The viability, T/C reads like this: (second compound 30 µM, first compound 0.00316 µM) 83.9%; (second compound 30 µM, first compound 0.01 µM) 79%; (second compound 30 µM, first compound 0.0316 µM) 72.6%; (second compound 30 µM, first compound 0.1 µM) 68.9%; (second compound 30 µM, first compound 0.316 µM) 64.5%; (second compound 30 µM, first compound 1 µM) 72.7%.
For the molecule `Cn1cnc2c(F)c(Nc3ccc(Br)cc3Cl)c(C(=O)NOCCO)cc21`, the viability, T/C (compound 0.00949 µM) was 101% and 110%; the viability, T/C (compound 0.03 µM) was 90.2% and 101%; the viability, T/C (compound 0.0949 µM) is 83.1% and 76.7%; the viability, T/C (compound 0.3 µM) was 71.4% and 79.2%; the viability, T/C (compound 0.949 µM) was 74.4% and 74.2%; the viability, T/C (compound 3 µM) is 65.5% and 64.2%. In addition, the pIC50 (curve of compound) was below 5.52.
For the molecule `Cc1nc(NC(=O)N2CCCC2C(N)=O)sc1-c1ccnc(C(C)(C)C(F)(F)F)c1` (centres undefined), the viability, T/C is 108% and 109% (compound 0.0316 µM); 105% and 106% (compound 0.1 µM); 88.8% and 87% (compound 0.316 µM); 90.8% and 87.5% (compound 1 µM); 90% and 80.8% (compound 3.16 µM); 82.5% and 78.5% (compound 10 µM). For the same molecule, the negative logarithm of the IC50 (pIC50) (curve of compound) was below 5.00.

One may read the pIC50 as the negative decadic logarithm of the IC50, by convention in mol/L. As usually defined, the viability, T/C is the result in the treated group divided by that in the control group, in per cent.
